Reference: PubChem BioAssay (NCI)
Several values for one entry are separate records, joined by “and”; a condition that tells them apart may be missing. Equal entries are not always repeated.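 Step 1: Grow cells in 96-well plates. Step 2: Expose to compound for 48 hours at 5 concentrations. Step 3: Interpolate endpoints linearly; if unreached, use highest concentration. Here, GI50 denotes the concentration required for 50% inhibition of growth. The concentration for full growth arrest is given as TGI.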

Tests used:
Test in all cases: NCI anticancer screen, dose series, 48 h
RXF 393 renal = system: RXF 393 renal
SR leukemia = system: SR leukemia
OVCAR-3 ovarian = system: OVCAR-3 ovarian
NCI-H460 lung = system: NCI-H460 lung
IGROV1 ovarian = system: IGROV1 ovarian
NCI-H226 lung = system: NCI-H226 lung
SF-268 CNS = system: SF-268 CNS
DMS 114 small cell lung = system: DMS 114 small cell lung
HCT-15 colon = system: HCT-15 colon
TK-10 renal = system: TK-10 renal
LXFL 529 NSCLC = system: LXFL 529 NSCLC
UACC-257 melanoma = system: UACC-257 melanoma
SK-OV-3 ovarian = system: SK-OV-3 ovarian
UO-31 renal = system: UO-31 renal
NCI-H522 lung = system: NCI-H522 lung
XF 498 CNS = system: XF 498 CNS
M19-MEL melanoma = system: M19-MEL melanoma
DLD-1 colon = system: DLD-1 colon
HOP-92 NSCLC = system: HOP-92 NSCLC
KM20L2 colon = system: KM20L2 colon
SNB-75 CNS = system: SNB-75 CNS
SN12C renal = system: SN12C renal
786-0 renal = system: 786-0 renal
KM12 colon = system: KM12 colon
HCT-116 colon = system: HCT-116 colon
DU-145 prostate = system: DU-145 prostate
LOX IMVI melanoma = system: LOX IMVI melanoma
MCF7 breast = system: MCF7 breast
EKVX NSCLC = system: EKVX NSCLC
U251 CNS = system: U251 CNS
DMS 273 small cell lung = system: DMS 273 small cell lung
HOP-62 NSCLC = system: HOP-62 NSCLC
SK-MEL-5 melanoma = system: SK-MEL-5 melanoma
CCRF-CEM leukemia = system: CCRF-CEM leukemia
SK-MEL-28 melanoma = system: SK-MEL-28 melanoma
SK-MEL-2 melanoma = system: SK-MEL-2 melanoma
NCI-H23 lung = system: NCI-H23 lung
HT29 colon = system: HT29 colon
SNB-19 CNS = system: SNB-19 CNS
RXF-631 renal = system: RXF-631 renal
ACHN renal = system: ACHN renal
A498 renal = system: A498 renal
M14 melanoma = system: M14 melanoma
K-562 leukemia = system: K-562 leukemia
CAKI-1 renal = system: CAKI-1 renal
NCI/ADR-RES ovarian = system: NCI/ADR-RES ovarian
HCC-2998 colon = system: HCC-2998 colon
UACC-62 melanoma = system: UACC-62 melanoma
HOP-18 NSCLC = system: HOP-18 NSCLC
SF-539 CNS = system: SF-539 CNS
A549 NSCLC = system: A549 NSCLC
RPMI-8226 leukemia = system: RPMI-8226 leukemia
OVCAR-8 ovarian = system: OVCAR-8 ovarian
COLO 205 colon = system: COLO 205 colon
MOLT-4 leukemia = system: MOLT-4 leukemia
SF-295 CNS = system: SF-295 CNS
OVCAR-4 ovarian = system: OVCAR-4 ovarian
SW-620 colon = system: SW-620 colon
HL-60(TB) leukemia = system: HL-60(TB) leukemia
PC-3 prostate = system: PC-3 prostate

Which results are given for CC(=O)O[C@@]12CO[C@@H]1C[C@H](O)[C@@]1(C)C(=O)[C@H](O)C3=C(C)[C@@H](OC(=O)[C@H](O)[C@@H](NC(=O)OC(C)(C)C)c4ccccc4)C[C@@](O)([C@@H](OC(=O)c4ccccc4)[C@H]21)C3(C)C?
GI50 (RXF 393 renal): 25.2 nM and 16.5 nM; GI50 (SR leukemia): 15.4 nM and 4.07 nM; TGI (SR leukemia): 23500 nM; GI50 (OVCAR-3 ovarian): 29.6 nM and 6.42 nM; TGI (OVCAR-3 ovarian): 24.4 nM; GI50 (NCI-H460 lung): 0.351 nM; TGI (NCI-H460 lung): 41000 nM; GI50 (IGROV1 ovarian): 59.3 nM and 19.8 nM; TGI (IGROV1 ovarian): > 79000 nM; GI50 (NCI-H226 lung): 3.66 nM; TGI (NCI-H226 lung): 43400 nM; GI50 (SF-268 CNS): 67.7 nM and 39.2 nM; TGI (SF-268 CNS): 77600 nM; GI50 (DMS 114 small cell lung): 3.68 nM and 3.71 nM; TGI (DMS 114 small cell lung): 52.5 nM and 22.3 nM; GI50 (HCT-15 colon): 65.6 nM; TGI (HCT-15 colon): 17100 nM; GI50 (TK-10 renal): 32.7 nM and 7.88 nM; GI50 (LXFL 529 NSCLC): 35.6 nM and 25.7 nM; TGI (LXFL 529 NSCLC): > 100000 nM; GI50 (UACC-257 melanoma): 310 nM; TGI (UACC-257 melanoma): 57900 nM; GI50 (SK-OV-3 ovarian): 52.1 nM and < 17.4 nM; TGI (SK-OV-3 ovarian): 49.1 nM; GI50 (UO-31 renal): 247 nM; TGI (UO-31 renal): 18000 nM; GI50 (NCI-H522 lung): 0.86 nM; GI50 (XF 498 CNS): 39.7 nM and 31.7 nM; GI50 (M19-MEL melanoma): 11.4 nM; TGI (M19-MEL melanoma): 21200 nM; GI50 (DLD-1 colon): 35.2 nM and 33.8 nM; TGI (DLD-1 colon): > 75400 nM; TGI (HOP-92 NSCLC): 59400 nM; GI50 (KM20L2 colon): 8.18 nM; TGI (KM20L2 colon): 22 nM; GI50 (SNB-75 CNS): 18.7 nM and 12.7 nM; TGI (SNB-75 CNS): 63.7 nM; GI50 (SN12C renal): 22.4 nM and 8.69 nM; TGI (SN12C renal): > 68300 nM; GI50 (786-0 renal): 61.2 nM and 8.24 nM; TGI (786-0 renal): > 100000 nM; GI50 (KM12 colon): 7.08 nM and 2.1 nM; TGI (KM12 colon): > 62200 nM; GI50 (HCT-116 colon): 2.03 nM; TGI (HCT-116 colon): > 100000 nM; TGI (DU-145 prostate): 78200 nM; GI50 (LOX IMVI melanoma): 3.08 nM and 3.68 nM; TGI (LOX IMVI melanoma): 42100 nM; TGI (MCF7 breast): 78400 nM; GI50 (EKVX NSCLC): 46.4 nM; GI50 (U251 CNS): 2.44 nM and 3.64 nM; TGI (U251 CNS): 28300 nM; GI50 (DMS 273 small cell lung): 11.2 nM and 27.1 nM; TGI (DMS 273 small cell lung): 17400 nM; GI50 (HOP-62 NSCLC): 84.4 nM and 42.8 nM; TGI (HOP-62 NSCLC): 3780 nM; GI50 (SK-MEL-5 melanoma): 13.3 nM and 6.09 nM; TGI (SK-MEL-5 melanoma): 17100 nM; GI50 (CCRF-CEM leukemia): 28.6 nM and 15.9 nM; TGI (CCRF-CEM leukemia): > 73600 nM; GI50 (SK-MEL-28 melanoma): 32.7 nM and 35.9 nM; TGI (SK-MEL-28 melanoma): 36500 nM; GI50 (SK-MEL-2 melanoma): 26.9 nM; GI50 (NCI-H23 lung): 19.2 nM; TGI (NCI-H23 lung): > 67200 nM; GI50 (HT29 colon): 7.46 nM and 2.57 nM; GI50 (SNB-19 CNS): 1.75 nM; GI50 (RXF-631 renal): 297 nM; TGI (RXF-631 renal): > 56700 nM; GI50 (ACHN renal): 156 nM; TGI (ACHN renal): 67100 nM; GI50 (A498 renal): 51.8 nM; TGI (A498 renal): 56100 nM; GI50 (M14 melanoma): 15.4 nM and 20.5 nM; TGI (M14 melanoma): 281 nM; GI50 (K-562 leukemia): 14.7 nM and 12.2 nM; TGI (K-562 leukemia): 71900 nM; GI50 (CAKI-1 renal): 146 nM; TGI (CAKI-1 renal): 81800 nM; GI50 (NCI/ADR-RES ovarian): 680 nM; TGI (NCI/ADR-RES ovarian): 9760 nM; GI50 (HCC-2998 colon): 18.2 nM; GI50 (UACC-62 melanoma): 14.1 nM and 112 nM; TGI (HOP-18 NSCLC): 74500 nM; GI50 (SF-539 CNS): 6.66 nM and 5.6 nM; TGI (SF-539 CNS): 61.2 nM and 25.1 nM; GI50 (A549 NSCLC): 4.54 nM; TGI (A549 NSCLC): > 82200 nM; GI50 (RPMI-8226 leukemia): 5.7 nM and 3.74 nM; TGI (RPMI-8226 leukemia): 15600 nM; GI50 (OVCAR-8 ovarian): 13.9 nM and 13.8 nM; TGI (OVCAR-8 ovarian): > 79300 nM; GI50 (COLO 205 colon): 2.3 nM and 0.963 nM; TGI (COLO 205 colon): 59 nM and 7.17 nM; GI50 (MOLT-4 leukemia): 33.7 nM and 8.77 nM; TGI (MOLT-4 leukemia): 50100 nM; GI50 (SF-295 CNS): 12.3 nM and 14.6 nM; TGI (SF-295 CNS): 133 nM; TGI (OVCAR-4 ovarian): 76100 nM; GI50 (SW-620 colon): 7.64 nM and 6.46 nM; TGI (SW-620 colon): > 68400 nM; GI50 (HL-60(TB) leukemia): 3.16 nM and 3.42 nM; TGI (PC-3 prostate): > 100000 nM
